The values below come from patent US20020018748A1, “Method for targeted radiotherapy, pain palliation and imaging of osteoblastic skeletal tumors and composition therefore” (priority 2000, published 2002).

The subject of series [1] is bone metastases from prostate cancer. Nature of the series: Fractional uptake of a tracer dose of ^85Sr chloride by bone metastases, measured with gamma camera / external counting. Format: in vivo, patient. On the procedure:
To calculate the activity (mCi or MBq) of the dose of a carrier-free salt of ^89Sr, preferably chloride, to be administered to palliate painful metastases in a patient, 1 mCi (37 MBq) of ^85Sr chloride with standard specific activity [120 μCi (4.44 MBq)/mg of strontium) is injected into the patient and radioactivity in each metastasis is measured 24 hours after injection. The fractional uptake in each metastasis (relative osteoblastic activity) is calculated by expressing the radioactivity measured in each metastasis as a percent of the administered dose. The sum of the fractional uptake in all metastases is taken as the “metastatic burden” of the patient.
Measurements of radioactivity can be guided by a recent bone scan with ^99Tc^m-MDP (methylene diphosphonate). These measurements can be made by external point counting with a collimated scintillation detector, or by using a gamma camera. […]
The gamma camera needs to be equipped with a high-energy collimator. Anterior and posterior images of the lesions are recorded for 15 minutes. […]
The count rate in each metastasis is calculated by the square root of the product of the count rates in the anterior (A) and posterior (P) images divided by e^−μd: [(cps A) ×(cps P)/(e^−μd)]. The exponential term accounts for the attenuation of the gamma photons by the patient's tissues, where μ is the attenuation coefficient for the gamma rays of ^85Sr, previously measured in a water phantom, and d is the patent thickness measured in cm from x-ray images. The attenuation coefficient needs to be experimentally estimated only once; sensitivity should be measured using an ^85Sr source in a soft-tissue phantom before each imaging session because it varies with time. […]
The sum of the fractional uptake of ^85Sr chloride by all detectable metastases (“metastatic burden”), is used to define the activity (mCi or MBq) of ^89Sr chloride needed to palliate painful metastases in a patient. […] The fractional uptake measured in these metastases was 3%, 4%, 7%, 10%, and 17% of the dose respectively, with a total “metastatic burden” of 41% (3+4+7+10+17=41) (Table II). […]

The next series relates to bone metastases. Nature of the series: Theoretical (calculated) distribution of ^89Sr chloride doses in the metastases, from the ^85Sr chloride uptake. Conditions: for total amount of strontium incorporated by all metastases: 4 mCi dose. In kind it is in vivo, patient. The procedure: The fractional uptake (%) of a standard dose ^89Sr chloride for pain palliation in bone metastasis [4 mCi (148 MBq)] with specific activity of 120 μCi (4.44 MBq)/mg of strontium) (B) is calculated from the fractional uptake (%) of 1 mCi of ^85Sr chloride at the same specific activity (A) is illustrated in Table II.
The fractional uptake (%) of a standard dose of 4.0 mCi (148 MBq) of ^89Sr chloride at the standard specific activity is calculated for each metastasis from the results obtained with ^85Sr chloride. Since the specific activity is the same for both radionuclides, the fractional uptake would be similar if the same physiological conditions are maintained. However, the activity (μCi) and the amount of strontium (mg) incorporated by the metastases would be increased by four times because the activity of the administered dose is increased from 1 mCi to 4 mCi. Theoretically, the fractional uptake of a standard dose of ^89Sr chloride by the metastatic burden would be 41.0% of the dose (1.64 mCi or 60.7 MBq), leaving in blood a remaining fraction of 59% of the dose (2.36 mCi or 87.3 MBq) available for renal excretion and for incorporation by normal bone.
The absolute amount of strontium (mg) incorporated by each lesion can be calculated by multiplying the activity of the administered dose (mCi or MBq) by the fractional uptake by a given metastasis (% of the dose), and dividing the result by the specific activity of the dose (mCi or MBq/mg of strontium):
Strontium (mg)=Activity of the dose (mCi) × fractional uptake (%)/specific activity (mCi/mg Sr)
In Table II it is also appreciated that the fractional uptake is the same for both the activity (μCi) and the absolute amount (mg) of strontium incorporated by the metastases. One mg of strontium corresponds to 3% of the element in the dose. One hundred and twenty μCi of ^89Sr correspond to […] of the activity in the dose. One mCi of strontium chloride with specific activity of 120 μCi/mg of strontium contains 8.333 mg of strontium (Table I), therefore, 4 mCi would contain 33.333 mg of the element. A fractional uptake of 41.0% corresponds to 410 μCi and 3.416 mg when using 1 mCi, and to 1.64 mCi and 13.667 mg when the dose is increased to 4 mCi (Table II). The amount of strontium (mg) taken up by the metastasis per unit time should be constant if the physiological parameters are maintained. Dose calculation may be guided by the relationship of the amount of strontium in carrier-free ^89Sr chloride ([…]) and that which is in an equal amount of its low specific activity counterpart (120 μCi/mg of Sr). The amount of strontium in 4 mCi of low specific activity ^89Sr chloride (120 μCi/mg of Sr), is 33.333 mg, while in carrier-free ^89Sr chloride (17 Ci/mg of Sr) it is reduced to 235.2 ng. The relationship between these quantities would be:
Theoretical distribution of ^89Sr chloride at different specific activities assuming the same fractional uptake (% of the dose) by the metastases. (A) ^89Sr chloride with low specific activity [120 μCi (4.44 MBq)/mg of strontium]; (B) carrier-free ^89Sr chloride [17 Ci (629 GBq)/mg of strontium] is illustrated in Table III.
If the “metastatic burden” takes up 41% of a 4mCi dose of the low specific activity ^89Sr chloride (13.664 mg of strontium) (Tables II and III), it is evident that the very small amount of strontium in the carrier-free ^89Sr chloride dose (235.2 ng) would be totally incorporated by the metastases, resulting in a fractional uptake of 100% y the metastatic burden. To correct for this effect, the data in Table IlI should be multiplied by the ratio between 100% uptake and the fractional uptake by the metastatic burden by using 89Sr chloride at the lower specific activity. In this case, the ratio is 100%/41%=2.439. […]

Series [2] relates to metastatic lesions in bone. Nature of the series: Absorbed radiation dose estimates by direct measurements of radioactivity in bone metastases. Format: in vivo. The following applies: after 4 mCi (148 MBq), 120 μCi/mg of strontium. An excerpt:
Absorbed radiation dose estimates for metastatic lesions in bone, obtained by direct measurements of radioactivity in bone metastases after the administration of 4 mCi (148 MBq) of ^89Sr chloride at standard specific activity (120 μCi [4.44 MBq]/mg of strontium), varied from 1.3 to 64 Gy, with a mean of 18±16 Gy. The average total absorbed dose in normal bone sites was 1.1±0.4 Gy. The metastases (target) to normal bone (non-target) dose ratio in individual samples varied from 8±4 to 40±25. If compared to absorbed radiation dose provided by external beam radiotherapy, the absorbed radiation dose delivered by ^89Sr chloride should be large enough to produce a therapeutic effect on the metastases. But absorbed radiation doses delivered by ^89Sr chloride may not be compared with those delivered by external beam radiotherapy because the different dose rates used in each methodology. External beam radiotherapy delivers very high dose rates in a very short time, while ^89Sr chloride provides very low dose rates during a long period. These differences reduce the biological effect of a given dose of ^89Sr because there is repair of sublethal damage.

A further series relates to painful bone metastases. The following applies: cited from earlier work.
The conditions of series [3]: intravenous single injection; reduced by slow administration over at least two minutes; cited from earlier work.
For the next series, the system named is bone marrow. The following applies: repeat doses at 3-month intervals; cited from earlier work.
For a further series, the system named is metastases. The following applies: in vivo; cited from earlier work.
Setting [4] is: carrier-free, 1.64 mCi dose, theoretical.
[5] abbreviates: standard dose 4 mCi (148 MBq), 120 μCi/mg of strontium, theoretical.
[6] abbreviates: standard dose 4 mCi, 120 μCi/mg of strontium, theoretical.

Where “and” joins values, the source holds several entries; their conditions need not be identical. Identical values can stand only once.

Regarding `[85Sr+2].[Cl-].[Cl-]` [^85Sr Chloride (120 μCi/mg Sr), ^85Sr chloride], the “Uptake (%)” value in series [1] (1 mCi dose, 120 μCi/mg Sr, 24 hours after injection, r8-r12 = metastasis 1-5, r13 = Total, one patient) was 7.0% and 10.0% and 17.0% and 41.0% and 3.0% and 4.0%. In addition, in series [1] (1 mCi, 120 μCi/mg of strontium, five metastases of one patient with prostate cancer, values respectively), the “fractional uptake measured in these metastases” value is 3 % of the dose and 4 % of the dose and 7 % of the dose and 10 % of the dose and 17 % of the dose. In addition, in series [1] (1 mCi, 120 μCi/mg of strontium, one patient, five metastases), the “total "metastatic burden" (sum of fractional uptake in all metastases)” value was 41%.

Take `[89Sr+2].[Cl-].[Cl-]` [^89Sr Chloride (17 Ci/mg Sr), ^89Sr chloride]: in the series on bone metastases (4 mCi (148 MBq) carrier-free vs 120 μCi/mg, ratio 100%/41%), the “fractional uptake by the metastases relative to the same activity at standard specific activity” value is reported as 2.439 times. For the same molecule, in the series with bone metastases (carrier-free, 1.64 mCi (60.68 MBq) dose, metastasis No. 4, No. 5, No. 1, No. 2, No. 3, respectively, listed as carrier-free ^89Sr chloride), the “activity incorporated by individual metastases” value was 400 μCi and 680 μCi and 120 μCi and 160 μCi and 280 μCi. For the same molecule, in the series with bone metastases (carrier-free, 1.64 mCi dose, measured ratio multiplied by 2.439), the “ratio metastases to normal bone, theoretical values” is listed as 20-98. Further, in the series on bone metastases (setting [4]), the “absolute amount of strontium taken up by the metastases” value is 96.422 ng and the “fractional uptake by the metastatic burden” value is reported as 100%. In addition, the “fractional uptake by the metastatic burden” value in the series with bone metastases (carrier-free, 4 mCi dose (235.2 ng strontium), theoretical) was 100%. The “activity received by individual metastases” value in the series with bone metastases (carrier-free, 4.1 mCi dose, metastasis 1-5 respectively, listed as carrier-free ^89Sr chloride) was 300 μCi and 400 μCi and 700 μCi and 1,000 μCi and 1,700 μCi. The “mean absorbed radiation dose to the metastases” value in the series on bone metastases (carrier-free, 5.466 mCi (202.2 MBq) dose, calculated) is recorded as 60 Gy.

Consider `[89Sr+2].[Cl-].[Cl-]` [^89Sr Chloride (120 μCi/mg Sr), ^89Sr chloride], for which the “total amount of strontium incorporated by all metastases” value (“total amount of strontium incorporated” for short) in the series on bone metastases (120 μCi/mg of strontium, theoretical) is reported as 13.664 mg. In addition, the “total amount of strontium incorporated” value in the series on bone metastases (120 μCi/mg of strontium, theoretical, listed as low specific activity ^89Sr chloride) is recorded as 13.664 mg. Besides, the “total amount of strontium incorporated” value in the series with bone metastases (120 μCi/mg of strontium, theoretical, listed as low specific activity ^89Sr chloride (120 μCi/mg of Sr)) is given as 13.667 mg. Moreover, in the series on bone metastases (over the five metastases of Table II), the mean fractional uptake is 8.2%. In the series with bone metastases (setting [5]), the “activity taken up by the metastatic burden” value is 1.64 mCi and the “fractional uptake by the metastatic burden” value is recorded as 41 % of the dose. In addition, in the series with bone metastases (standard dose 4 mCi (148 MBq), 120 μCi/mg of strontium, theoretical, listed as low specific activity ^89Sr chloride), the “fractional uptake by the metastatic burden” value was 41 % of the dose. Besides, in the series on bone metastases (setting [6]), the “activity remaining in blood, available for renal excretion and incorporation by normal bone” value is recorded as 2.36 mCi; the “fraction remaining in blood, available for renal excretion and incorporation by normal bone” value is on record as 59 % of the dose. In series [2], the “absorbed radiation dose for metastatic lesions in bone, mean” value is 18±16 Gy; the “average total absorbed dose in normal bone sites” value was 1.1±0.4 Gy; the “metastases (target) to normal bone (non-target) dose ratio in individual samples” value is on record as 8-40. For the same molecule, in the series on painful bone metastases (after ^89Sr administration), the “duration of response, mean” value is recorded as 6 months. In the series on painful bone metastases (survey in the United States in 1995, patients treated with bone-seeking radionuclides), the “overall effective pain palliation” value was 81%. For the same molecule, the “patients achieving a complete remission of pain” value in the series on painful bone metastases (survey in the United States in 1995) is 15%. For the same molecule, the “effect during the injection” value in series [3] is listed as “facial flushing during the injection”. Moreover, the “toxicity of additional injections” value in the series on bone marrow is on record as “no major toxicity”. In the series with metastases, the “ratio of the uptake by metastases as compared to the uptake in normal bones” value is “higher than 10 to 1”.
